Literature values as cited in publication PMC3969558 (Molecular Biology and Evolution, 2013).
No end group written: not given here.

What was measured:
[1] = system: steroidal receptors (nuclear receptors similar to the sex steroid receptors); settings: ref Paris et al. 2008; Katsu et al. 2010
[2] = system: amphioxus GnRHR3; settings: ref Tello and Sherwood 2009

| Molecule | binding to amphioxus steroidal receptor [1] | activation of GnRHR3 (earlier study) [2] |
| --- | --- | --- |
| C[C@]12CC[C@@H]3c4ccc(O)cc4CC[C@H]3[C@@H]1CC[C@@H]2O [estradiol] | has been shown to bind one of the steroidal receptors | – |
| vertebrate GnRH2: vertebrate GnRH2, present throughout the vertebrates, 10 amino acids (QHWSHGWYPG; ends and bridges not checked; UniProt O43555 24-33, looked up) | – | activated amphioxus GnRHR3 within the vertebrate physiological range |
